Consider 23 molecules from patent US8865698B2, “Method of treatment using substituted pyrazolo[1,5-a]pyrimidine compounds” (Array BioPharma Inc., priority 2008, dated 2014).

Molecules are shown by their SMILES.

histidine-tagged recombinant human TrkA, cytoplasmic domain, sequence (P04629 440-796): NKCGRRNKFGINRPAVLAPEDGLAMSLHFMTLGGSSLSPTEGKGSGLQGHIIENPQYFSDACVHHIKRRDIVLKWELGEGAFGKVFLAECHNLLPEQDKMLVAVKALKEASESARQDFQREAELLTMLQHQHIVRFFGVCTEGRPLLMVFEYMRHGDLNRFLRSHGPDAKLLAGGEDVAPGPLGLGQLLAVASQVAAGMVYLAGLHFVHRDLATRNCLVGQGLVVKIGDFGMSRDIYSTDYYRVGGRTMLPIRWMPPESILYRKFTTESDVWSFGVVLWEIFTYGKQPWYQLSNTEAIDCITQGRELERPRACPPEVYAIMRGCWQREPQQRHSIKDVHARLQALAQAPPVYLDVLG

This test has as its target histidine-tagged recombinant human TrkA, cytoplasmic domain (Homo sapiens (Human), UniProt P04629). Nature of the test: TrkA ELISA Assay. It is filed as biochemical. The note with it: 2.5 nM TrkA, 500 μM ATP, 25 minutes; read-out: TrkA Elisa Enzyme IC50. How it is done: An enzyme-linked immunosorbant assay (ELISA) was used to assess TrkA kinase activity in the presence of inhibitors. Immulon 4HBX 384-well microtiter plates (Thermo part #8755) were coated with a 0.025 mg/mL solution of poly (Glu, Ala, Tyr; 6:3:1; Sigma P3899). Various concentrations of test compound, 2.5 nM TrkA (Invitrogen Corp., histidine-tagged recombinant human TrkA, cytoplasmic domain), and 500 μM ATP were incubated for 25 minutes at ambient temperature in the coated plates while shaking. The assay buffer consisted of 25 mM MOPS pH 7.5, 0.005% (v/v) Triton X-100 and 5 mM MgCl2. The reaction mixture was removed from the plate by washing with PBS containing 0.1% (v/v) Tween 20. The phosphorylated reaction product was detected using 0.2 μg/mL of a phosphotyrosine specific monoclonal antibody (clone PY20) conjugated to horseradish peroxidase in conjunction with the TMB Peroxidase Substrate System (KPL). After the addition of 1M phosphoric acid, the chromogenic substrate color intensity was quantitated via absorbance at 450 nm. IC50 values were calculated using either a 4 or 5-parameter logistic curve fit.
Background: An ELISA detects its analyte on a solid surface through an enzyme-linked reagent.
By IC50 is commonly meant the concentration that inhibits the measured activity by half. `O=C(Nc1cnn2ccc(N3CCC[C@@H]3c3cccc(F)c3)nc12)c1ccncc1` [Example 77, (R)—N-(5-(2-(3-fluorophenyl)pyrrolidin-1-yl)pyrazolo[1,5-a]pyrimidin-3-yl)isonicotinamide]: the IC50 came to 0.0718 µM.

In the case of `O=C(Nc1cnn2ccc(N3CCC[C@@H]3c3cc(F)ccc3F)nc12)C1(O)CC1` [Example 65, (R)—N-(5-(2-(2,5-difluorophenyl)pyrrolidin-1-yl)pyrazolo[1,5-a]pyrimidin-3-yl)-1-hydroxycyclopropanecarboxamide], the IC50 was determined as 0.0165 µM. For `COC1CN(C(=O)Nc2cnn3ccc(N4CCC[C@@H]4c4cc(F)ccc4F)nc23)C1` [Example 16, (R)—N-(5-(2-(2,5-difluorophenyl)pyrrolidin-1-yl)pyrazolo[1,5-a]pyrimidin-3-yl)-3-methoxyazetidine-1-carboxamide], the 50% inhibitory concentration (IC50) was found to be 0.0275 µM. In the case of `O=C(Nc1cnn2ccc(N3CCC[C@@H]3c3cc(F)ccc3F)nc12)C(=O)N1CCOCC1` [Example 103, (R)—N-(5-(2-(2,5-difluorophenyl)pyrrolidin-1-yl)pyrazolo[1,5-a]pyrimidin-3-yl)-2-morpholino-2-oxoacetamide] it was 0.0824 µM.

Consider `CC(C)Nc1nc(C(=O)Nc2cnn3ccc(N4CCC[C@@H]4c4cc(F)ccc4F)nc23)cs1` [Example 55, (R)—N-(5-(2-(2,5-difluorophenyl)pyrrolidin-1-yl)pyrazolo[1,5-a]pyrimidin-3-yl)-2-(isopropylamino)thiazole-4-carboxamide], for which the IC50 was found to be 0.0031 µM.

For `O=C(Nc1cnn2ccc(N3CCC[C@@H]3c3cc(F)ccc3F)nc12)N1CC(O)C1` [Example 1, (R)—N-(5-(2-(2,5-difluorophenyl)pyrrolidin-1-yl)pyrazolo[1,5-a]pyrimidin-3-yl)-3-hydroxyazetidine-1-carboxamide], the IC50 was 0.0207 µM.

For `O=C(Nc1cnn2ccc(N3CCC[C@@H]3c3cc(F)ccc3F)nc12)C1CC(O)C1` (stereo partly drawn) [Example 96, (R)—N-(5-(2-(2,5-difluorophenyl)pyrrolidin-1-yl)pyrazolo[1,5-a]pyrimidin-3-yl)-3-hydroxycyclobutanecarboxamide], the IC50 was 0.0274 µM. The value for `O=C(Nc1cnn2ccc(N3CCC[C@@H]3c3cc(F)ccc3F)nc12)c1ccccn1` [Example 59, (R)—N-(5-(2-(2,5-difluorophenyl)pyrrolidin-1-yl)pyrazolo[1,5-a]pyrimidin-3-yl)picolinamide] was 0.0017 µM; that for `Cc1cnc(C(=O)Nc2cnn3ccc(N4CCC[C@@H]4c4cccc(F)c4)nc23)cn1` [Example 82, (R)—N-(5-(2-(3-fluorophenyl)pyrrolidin-1-yl)pyrazolo[1,5-a]pyrimidin-3-yl)-5-methylpyrazine-2-carboxamide] was 0.0066 µM; that for `CC(C)(C)OC(=O)N1CC(C(=O)Nc2cnn3ccc(N4CCC[C@@H]4c4cc(F)ccc4Cl)nc23)C1` [Example 46, (R)-tert-butyl 3-(5-(2-(2-chloro-5-fluorophenyl)pyrrolidin-1-yl)pyrazolo[1,5-a]pyrimidin-3-ylcarbamoyl)azetidine-1-carboxylate] was 0.0373 µM. In the case of `O=C(Nc1cnn2ccc(N3CCC[C@@H]3c3cccc(F)c3)nc12)N1CCOCC1` [Example 9, (R)—N-(5-(2-(3-fluorophenyl)pyrrolidin-1-yl)pyrazolo[1,5-a]pyrimidin-3-yl)morpholine-4-carboxamide] it was 0.821 µM; in that of `CC(C)(F)C(=O)Nc1cnn2ccc(N3CCC[C@@H]3c3cc(F)ccc3F)nc12` [Example 54, (R)—N-(5-(2-(2,5-difluorophenyl)pyrrolidin-1-yl)pyrazolo[1,5-a]pyrimidin-3-yl)-2-fluoro-2-methylpropanamide], 0.0142 µM; in that of `COC1CN(C(=O)Nc2cnn3ccc(N4CCC[C@@H]4c4cc(F)ccc4Cl)nc23)C1` [Example 21, (R)—N-(5-(2-(2-chloro-5-fluorophenyl)pyrrolidin-1-yl)pyrazolo[1,5-a]pyrimidin-3-yl)-3-methoxyazetidine-1-carboxamide], 0.0279 µM.

As for `O=C(Nc1cnn2ccc(N3CC(F)(F)C[C@@H]3c3cccc(F)c3)nc12)N1CC(O)C1` [Example 7, (R)—N-(5-(4,4-difluoro-2-(3-fluorophenyl)pyrrolidin-1-yl)pyrazolo[1,5-a]pyrimidin-3-yl)-3-hydroxyazetidine-1-carboxamide], the IC50 turned out to be 0.0775 µM. For `O=C(Nc1cnn2ccc(N3CCC[C@@H]3c3cc(F)ccc3C(F)F)nc12)N1CCC(O)CC1` [Example 38, (R)—N-(5-(2-(2-(difluoromethyl)-5-fluorophenyl)pyrrolidin-1-yl)pyrazolo[1,5-a]pyrimidin-3-yl)-4-hydroxypiperidine-1-carboxamide], the IC50 stood at 0.0855 µM. The value for `Cn1ccnc1C(=O)Nc1cnn2ccc(N3CCC[C@@H]3c3cccc(F)c3)nc12` [Example 83, (R)—N-(5-(2-(3-fluorophenyl)pyrrolidin-1-yl)pyrazolo[1,5-a]pyrimidin-3-yl)-1-methyl-1H-imidazole-2-carboxamide] was 0.0354 µM; that for `O=C(Nc1cnn2ccc(N3CCC[C@@H]3c3cc(F)ccc3F)nc12)C(=O)NC1CC1` [Example 100, (R)—N^1-cyclopropyl-N2-(5-(2-(2,5-difluorophenyl)pyrrolidin-1-yl)pyrazolo[1,5-a]pyrimidin-3-yl)oxalamide] was 0.0158 µM; that for `NC(=O)C(=O)Nc1cnn2ccc(N3CCC[C@@H]3c3cc(F)ccc3F)nc12` [Example 99, (R)—N^1-(5-(2-(2,5-difluorophenyl)pyrrolidin-1-yl)pyrazolo[1,5-a]pyrimidin-3-yl)oxalamide] was 0.00465 µM. In the case of `Cc1cccnc1C(=O)Nc1cnn2ccc(N3CCC[C@@H]3c3cc(F)ccc3F)nc12` [Example 63, (R)—N-(5-(2-(2,5-difluorophenyl)pyrrolidin-1-yl)pyrazolo[1,5-a]pyrimidin-3-yl)-3-methylpicolinamide], the IC50 was 0.0017 µM.

Consider `O=C(Nc1cnn2ccc(N3CCC[C@@H]3c3cc(F)ccc3Cl)nc12)N1CC[C@@H](O)C1` [Example 41, (R)—N-(5-((R)-2-(2-chloro-5-fluorophenyl)pyrrolidin-1-yl)pyrazolo[1,5-a]pyrimidin-3-yl)-3-hydroxypyrrolidine-1-carboxamide], for which the IC50 amounted to 0.0041 µM. The value for `COc1cccc(C(=O)Nc2cnn3ccc(N4CCC[C@@H]4c4cccc(F)c4)nc23)n1` [Example 75, (R)—N-(5-(2-(3-fluorophenyl)pyrrolidin-1-yl)pyrazolo[1,5-a]pyrimidin-3-yl)-6-methoxypicolinamide] was 0.0074 µM; that for `CC(C)(C)OC(=O)N1CCC(C)(C(=O)Nc2cnn3ccc(N4CCC[C@@H]4c4cc(F)ccc4Cl)nc23)CC1` [Example 48, (R)-tert-butyl 4-(5-(2-(2-chloro-5-fluorophenyl)pyrrolidin-1-yl)pyrazolo[1,5-a]pyrimidin-3-ylcarbamoyl)-4-methylpiperidine-1-carboxylate] was 0.0153 µM.

For `C[C@H]1CN(C(=O)Nc2cnn3ccc(N4CCC[C@@H]4c4cc(F)ccc4Cl)nc23)CCN1C(=O)OC(C)(C)C` [Example 24, (S)-tert-butyl 4-(5-((R)-2-(2-chloro-5-fluorophenyl)pyrrolidin-1-yl)pyrazolo[1,5-a]pyrimidin-3-ylcarbamoyl)-2-methylpiperazine-1-carboxylate], the IC50 stood at 0.055 µM.
